# Patent publication US20250114374A1, “BCL-2 INHIBITORS” (Newave Pharmaceutical Inc., priority 2021, published 2025)
# Test system: RS4; 11 with G101V mutation
# Assay: In vitro anti-proliferation assay (ATPlite luminescence) in BCL-2-dependent ALL cell line RS4;11 with G101V mutation
# Format: cell-based
# Conditions: Homo sapiens, RS4-11, 72 h; read-out: RS411-G101V IC50
# Procedure, shortened: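 RS4;11 G101V cells at about 1×10^4 per well were exposed to a range of compound concentrations for about 72 h in medium with 10% FBS. Cellular ATP was measured by ATPlite luminescence after lysis, and IC50 was derived from the dose-response.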
row,IC50 [nM],SMILES
1,9.6,"CC(C)Oc1ccccc1[C@@H]1CN(Cc2ccc(F)c(F)c2)CCN1C1CC2(CCN(c3ccc(C(=O)NS(=O)(=O)c4cc5c(c([N+](=O)[O-])c4)N[C@H](C4CCOCC4)CO5)c(N4c5cc6cc[nH]c6nc5O[C@H]5COCC[C@@H]54)c3)CC2)C1 [Example 181, 4-(2-((R)-4-(3,4-difluorobenzyl)-2-(2-isopropoxyphenyl)piperazin-1-yl)-7-azaspiro[3.5]nonan-7-yl)-N-(((R)-5-nitro-3-(tetrahydro-2H-pyran-4-yl)-3,4-dihydro-2H-benzo[b][1,4]oxazin-7-yl)sulfonyl)-2-((5aS,9aR)-6,7,9,9a-tetrahydro-1H-pyrano[3,4-b]pyrrolo[3′,2′:5,6]pyrido[3,2-e][1,4]oxazin-5(5aH)-yl)benzamide]"
2,94.9,"CC(C)Oc1ccccc1[C@@H]1CN([C@@H]2COCc3cc(F)c(F)cc32)CCN1C1CC2(CCN(c3ccc(C(=O)NS(=O)(=O)c4cc5c(c([N+](=O)[O-])c4)N[C@H](C4CCOCC4)CO5)c(N4c5cc6cc[nH]c6nc5O[C@H]5COCC[C@@H]54)c3)CC2)C1 [Example 217, 4-(2-((R)-4-((S)-6,7-difluoroisochroman-4-yl)-2-(2-isopropoxyphenyl)piperazin-1-yl)-7-azaspiro[3.5]nonan-7-yl)-N-(((R)-5-nitro-3-(tetrahydro-2H-pyran-4-yl)-3,4-dihydro-2H-benzo[b][1,4]oxazin-7-yl)sulfonyl)-2-((5aS,9aR)-6,7,9,9a-tetrahydro-1H-pyrano[3,4-b]pyrrolo[3′,2′:5,6]pyrido[3,2-e][1,4]oxazin-5(5aH)-yl)benzamide]"
3,145,"Cc1ccccc1[C@@H]1CN([C@@H]2CCOc3c(F)cc(F)cc32)CCN1C1CC2(CCN(c3ccc(C(=O)NS(=O)(=O)c4cc5c(c([N+](=O)[O-])c4)N[C@H](C4CCOCC4)CO5)c(N4c5cc6cc[nH]c6nc5O[C@H]5COCC[C@@H]54)c3)CC2)C1 [Example 198, 4-(2-((R)-4-((R)-6,8-difluorochroman-4-yl)-2-(o-tolyl)piperazin-1-yl)-7-azaspiro[3.5]nonan-7-yl)-N-(((R)-5-nitro-3-(tetrahydro-2H-pyran-4-yl)-3,4-dihydro-2H-benzo[b][1,4]oxazin-7-yl)sulfonyl)-2-((5aS,9aR)-6,7,9,9a-tetrahydro-1H-pyrano[3,4-b]pyrrolo[3′,2′:5,6]pyrido[3,2-e][1,4]oxazin-5(5aH)-yl)benzamide]"

# Same assay, conditions: cellular anti-proliferative IC50, about 72 hours, medium with 10% FBS, ATPlite; read-out: RS411-G101V IC50
row,SMILES,IC50 [nM]
1,"Cc1ccccc1[C@@H]1CN(Cc2ccc(F)c(F)c2)CCN1C1CC2(CCN(c3ccc(C(=O)NS(=O)(=O)c4cc5c(c([N+](=O)[O-])c4)N[C@@H](C4CCOCC4)CO5)c(N4c5cc6cc[nH]c6nc5O[C@H]5COCC[C@@H]54)c3)CC2)C1 [Example 167, 4-{2-[(2R)-4-[(3,4-difluorophenyl)methyl]-2-(2-methylphenyl)piperazin-1-yl]-7-azaspiro[3.5]nonan-7-yl}-2-[(3R,8S)-2,5-dioxa-9,15,17-triazatetracyclo[8.7.0.0^{3,8}.0^{12,16}]heptadeca-1(10),11,13,16-tetraen-9-yl]-N-[(3S)-5-nitro-3-(oxan-4-yl)-3,4-dihydro-2H-1,4-benzoxazin-7-ylsulfonyl]benzamide]",75.8
2,"COc1cc(CN2CCN([C@@H]3CC4(CCN(c5ccc(C(=O)NS(=O)(=O)c6ccc(NCC7CCC(C)(O)CC7)c([N+](=O)[O-])c6)c(N6c7cc8cc[nH]c8nc7O[C@H]7COCC[C@@H]76)c5)CC4)[C@@H]3C)[C@@H](c3ccccc3OC(C)C)C2)cnc1N1CCOCC1 (stereo partly drawn) [Example 120, 2-[(3R,8S)-2,5-dioxa-9,15,17-triazatetracyclo[8.7.0.0^{3,8}.0^{12,16}]heptadeca-1(10),11,13,16-tetraen-9-yl]-4-[(1S,2R)-2-[(2S)-2-(2-isopropoxyphenyl)-4-{[5-methoxy-6-(morpholin-4-yl)pyridin-3-yl]methyl}piperazin-1-yl]-1-methyl-7-azaspiro[3.5]nonan-7-yl]-N-[3-nitro-4-({[(1r,4r)-4-hydroxy-4-methylcyclohexyl]methyl}amino)benzenesulfonyl]benzamide]",147
3,"CNc1ccc(CN2CCN(C3CC4(CCN(c5ccc(C(=O)NS(=O)(=O)c6cc7c(c([N+](=O)[O-])c6)N[C@H](C6CCOCC6)CO7)c(N6c7cc8cc[nH]c8nc7O[C@H]7COCC[C@@H]76)c5)CC4)C3)[C@H](c3ccccc3OC(C)C)C2)cn1 [Example 259, 2-[(3R,8S)-2,5-dioxa-9,15,17-triazatetracyclo[8.7.0.0^{3,8}.0^{12,16}]heptadeca-1(10),11,13,16-tetraen-9-yl]-4-{2-[(2R)-2-(2-isopropoxyphenyl)-4-{[6-(methylamino)pyridin-3-yl]methyl}piperazin-1-yl]-7-azaspiro[3.5]nonan-7-yl}-N-[(3R)-5-nitro-3-(oxan-4-yl)-3,4-dihydro-2H-1,4-benzoxazin-7-ylsulfonyl]benzamide]",9.72
4,"COc1cc(CN2CCN(C3CC4(CCN(c5ccc(C(=O)NS(=O)(=O)c6cc7c(c([N+](=O)[O-])c6)N[C@H](C6CCOCC6)CO7)c(N6c7cc8cc[nH]c8nc7O[C@H]7COCC[C@@H]76)c5)CC4)C3)[C@H](c3ccccc3C)C2)cnc1N1CCOC[C@H]1C [Example 188, 2-[(3R,8S)-2,5-dioxa-9,15,17-triazatetracyclo[8.7.0.0^{3,8}.0^{12,16}]heptadeca-1(10),11,13,16-tetraen-9-yl]-4-{2-[(2R)-4-({5-methoxy-6-[(3R)-3-methylmorpholin-4-yl]pyridin-3-yl}methyl)-2-(2-methylphenyl)piperazin-1-yl]-7-azaspiro[3.5]nonan-7-yl}-N-[(3R)-5-nitro-3-(oxan-4-yl)-3,4-dihydro-2H-1,4-benzoxazin-7-ylsulfonyl]benzamide]",11.1
5,"COc1cc(CN2CCN(C3CC4(CCN(c5ccc(C(=O)NS(=O)(=O)c6ccc(NCC7CCC(C)(O)CC7)c([N+](=O)[O-])c6)c(N6c7cc8cc[nH]c8nc7O[C@H]7COCC[C@@H]76)c5)CC4)C3)[C@@H](c3ccccc3OC(C)C)C2)cc2cc(C)oc12 (stereo partly drawn) [Example 129, N-((4-((((1r,4r)-4-hydroxy-4-methylcyclohexyl)methyl)amino)-3-nitrophenyl)sulfonyl)-4-(2-((S)-2-(2-isopropoxyphenyl)-4-((7-methoxy-2-methylbenzofuran-5-yl)methyl)piperazin-1-yl)-7-azaspiro[3.5]nonan-7-yl)-2-((5aS,9aR)-6,7,9,9a-tetrahydro-1H-pyrano[3,4-b]pyrrolo[3′,2′:5,6]pyrido[3,2-e][1,4]oxazin-5(5aH)-yl)benzamide]",33.9
6,"CC(C)Oc1ccccc1[C@@H]1CN(Cc2ccc(F)c(F)c2)CCN1C1CC2(CCN(c3cc(N4c5cc6cc[nH]c6nc5O[C@H]5COCC[C@@H]54)c(C(=O)NS(=O)(=O)c4cc5c(c([N+](=O)[O-])c4)N[C@H](C4CCOCC4)CO5)cc3F)CC2)C1 [Example 227, 4-{2-[(2R)-4-[(3,4-difluorophenyl)methyl]-2-(2-isopropoxyphenyl)piperazin-1-yl]-7-azaspiro[3.5]nonan-7-yl}-2-[(3R,8S)-2,5-dioxa-9,15,17-triazatetracyclo[8.7.0.0^{3,8}.0^{12,16}]heptadeca-1(10),11,13,16-tetraen-9-yl]-5-fluoro-N-[(3R)-5-nitro-3-(oxan-4-yl)-3,4-dihydro-2H-1,4-benzoxazin-7-ylsulfonyl]benzamide]",119
7,"COc1cc(CN2CCN([C@@H]3CC4(CCN(c5ccc(C(=O)NS(=O)(=O)c6ccc(NCC7CCC(C)(O)CC7)c([N+](=O)[O-])c6)c(N6c7cc8cc[nH]c8nc7O[C@H]7COCC[C@@H]76)c5)CC4)[C@H]3C)[C@@H](c3ccccc3OC(C)C)C2)cnc1N1CCOCC1 (stereo partly drawn) [Example 121, 2-[(3R,8S)-2,5-dioxa-9,15,17-triazatetracyclo[8.7.0.0^{3,8}.0^{12,16}]heptadeca-1(10),11,13,16-tetraen-9-yl]-4-[(1R,2R)-2-[(2S)-2-(2-isopropoxyphenyl)-4-{[5-methoxy-6-(morpholin-4-yl)pyridin-3-yl]methyl}piperazin-1-yl]-1-methyl-7-azaspiro[3.5]nonan-7-yl]-N-[3-nitro-4-({[(1r,4r)-4-hydroxy-4-methylcyclohexyl]methyl}amino)benzenesulfonyl]benzamide]",47.9
8,"CC(C)Oc1ccccc1[C@H]1CN(C2CCC(C)(O)CC2)CCN1C1CC2(CCN(c3ccc(C(=O)NS(=O)(=O)c4ccc(NCC5CCC(C)(O)CC5)c([N+](=O)[O-])c4)c(N4c5cc6cc[nH]c6nc5O[C@H]5COCC[C@@H]54)c3)CC2)C1 (stereo partly drawn) [Example 108, 2-[(3R,8S)-2,5-dioxa-9,15,17-triazatetracyclo[8.7.0.0^{3,8}.0^{12,16}]heptadeca-1(10),11,13,16-tetraen-9-yl]-4-{2-[(2S)-2-(2-isopropoxyphenyl)-4-[(1r,4r)-4-hydroxy-4-methylcyclohexyl]piperazin-1-yl]-7-azaspiro[3.5]nonan-7-yl}-N-[3-nitro-4-({[(1r,4r)-4-hydroxy-4-methylcyclohexyl]methyl}amino)benzenesulfonyl]benzamide]",7.2
9,"CC(C)Oc1ccccc1[C@@H]1CN(Cc2ccc(C(C)C)nc2)CCN1C1CC2(CCN(c3ccc(C(=O)NS(=O)(=O)c4cc5c(c([N+](=O)[O-])c4)N[C@H](C4CCOCC4)CO5)c(N4c5cc6cc[nH]c6nc5O[C@H]5COCC[C@@H]54)c3)CC2)C1 [Example 255, 2-[(3R,8S)-2,5-dioxa-9,15,17-triazatetracyclo[8.7.0.0^{3,8}.0^{12,16}]heptadeca-1(10),11,13,16-tetraen-9-yl]-4-{2-[(2R)-2-(2-isopropoxyphenyl)-4-[(6-isopropylpyridin-3-yl)methyl]piperazin-1-yl]-7-azaspiro[3.5]nonan-7-yl}-N-[(3R)-5-nitro-3-(oxan-4-yl)-3,4-dihydro-2H-1,4-benzoxazin-7-ylsulfonyl]benzamide]",6.39
